# Measurements: patent US20090047742A1 (priority 2005, published 2009)
# B1: MazE: labile E. coli antitoxin that antagonizes the endoribonuclease activity of MazF; expressed from pcDNA3/mazE together with MazF (protein, UniProt P0AE72 1-82, looked up)
# Antitoxin MazE: MIHSSVKRWGNSPAVRIPATLMQALNLNIDDEVKIDLVDGKLIIEPVRKEPVFTLAELVNDITPENLHENIDWGEPKDKEVW
# Columns and labels:
# iBMK cells [1] = assay: MTT assay, viability of iBMK cells; assay type: cell-based, mouse; conditions: for sensitivity to TNF-α-induced cell death (MTT assay): TNF-α/CHX (0.05 μg/ml)
# Description: 3-(4,5-dimethylthiazol-2-yl)-2,5-diphenyltetrazolium bromide (MTT) assay to measure the viability of iBMK cells treated with paclitaxel, CHX, or both mouse TNF-α and CHX was performed as previously described (Ioffe, M. L., et al., Prostate 61: 243-247. (2004)).
# To test if apoptosis mediated by general translation inhibition was dependent on specific BH3-only proteins, the apoptotic response of puma^−/−, bim^−/−, noxa^−/−, nbk/bik^−/− iBMK cells to translation inhibition was tested with CHX. In addition to W2, D3, X2 or K1 cells, puma^−/−, bim^−/−, noxa^−/− or nbk/bik^−/− cells were treated with increasing concentration of CHX (0.05, 0.5, 1.0, 5.0 and 10.0 μg/ml) for 24 hours to induce translation inhibition and viability was assessed. […] In contrast, when D3, K1 (FIG. 6B) and nbk/bik^−/− (FIG. 6C) cells were treated with CHX, cell viability remained high. […] In contrast, D3 cells were resistant to cell death induced by TNF-α and paclitaxel (FIGS. 6D and E). […] Furthermore, NBK/BIK was not required for TNF-α-mediated apoptosis (FIG. 6D) which signals through tBID (Li, H., et al., Cell 94: 491-501 (1998); Luo, X., et al., Cell 94: 481-490 (1998)), nor was NBK/BIK required for apoptosis induced by taxanes (FIG. 6E) which is dependent on BIM (Bouillet, P., et al., Science 286: 1735-1738 (1999); Tan, T. T., et al., Cancer Cell 7: 227-238. (2005)). These findings support the role for specific BH3-only proteins controlling the response to discrete apoptotic stimuli.
# iBMK cells [2] = conditions: cited from earlier work
# caspase-3, PARP = assay: Western blot of active caspase-3 and PARP in T-Rex-293 lysates; assay type: cell-based, human
# Description: Western blot analysis and immunofluorescence were performed as previously described (Perez, D., and White, E. J. Cell Biol. 141: 1255-1266 (1998); Perez, D., and White, E. Mol. Cell 6: 53-63 (2000)). The term “Western blot” refers to a method for identifying proteins in a complex mixture; proteins are separated electrophoretically in a gel medium; transferred from the gel to a protein binding sheet or membrane; and the sheet or membrane containing the separated proteins exposed to specific antibodies which bind to, locate, and enable visualization of protein(s) of interest. T-Rex-293 (mazF/pcDNA3) and T-Rex-293 (mazF/mazE) cells were harvested at 0, 24, 48 and 72 hr post-treatment with tetracycline or staurosporine by scraping and centrifugation. All cell pellets were lysed in 2× Laemmli buffer. Cell lysates were subjected to electrophoresis on a 15% SDS-PAGE gel and then transferred onto an Immobilon-P membrane (Millipore, Bedford, Mass.). The blot was incubated with following antibody: anti-active caspase-3 rabbit polyclonal antibody (Cell Signaling Technology, Beverly, Mass.), anti-BAX, anti-BAK rabbit polyclonal antibody (NT) (Upstate Biotechnology Inc., Lake Placid, N.Y.), anti-BID goat polyclonal antibody (R&D Systems, Inc, Minneapolis, Minn.), anti-Bim rabbit polyclonal antibody (Alexis Biochemical, San Diego, Calif.), anti-BCL-2 hamster monoclonal antibody (PharMingen, San Diego, Calif.), anti-BCL-XL mouse monoclonal antibody (Trevigen, Gaithersburg, Md.), anti-MCL-1 rabbit polyclonal antibody (Stressgen Biotechnologies, Victoria, British Columbia, Canada), anti-PARP mouse monoclonal antibody (PharMingen, San Diego, Calif.), anti-PUMA rabbit polyclonal antibody (Nelson, D. A., et al., Genes Dev. 18: 2095-2107 (2004)), anti-E1A monoclonal antibody; anti-actin monoclonal antibody (Oncogene Research Products); and anti-Xpress monoclonal antibody (Invitrogen). An antibody directed to human NBK/BIK was generated by expression of a GST-tagged human NBK/BIK fusion protein encoding an N-terminal 78-amino acid region in bacteria and immunization of rabbits (Cocalico). Western Blots were developed with horseradish peroxidase-conjugated secondary antibodies using the ECL system (Amersham-Pharmacia Biotech, Piscataway, N.J.).
# [3] = system: human GAPDH and β-actin mRNA; assay: Northern blot analysis of cellular mRNA in T-Rex-293 cells; assay type: cell-based; conditions: co-expression of MazE with MazF, T-Rex-293 (mazF/mazE), throughout time course of induction
# Description: Northern blot analysis and real-time PCR (RT-PCR) was preformed as previously described (Zhang, Y., et al., Mol. Cell 12: 913-923 (2003); Cuconati, A., et al., Genes Dev. 17: 2922-2932 (2003)). Total RNA from tetracycline-treated (0, 24, 48 and 72 hr) or untreated (0, 24, 48 and 72 hr) T-Rex-293 (mazF/pcDNA3) and T-Rex-293 (mazF/mazE) cells for were isolated through the use of Trizol Reagent (Gibco, Carlsbad, Calif.). For Northern blot analysis, 10 μg of total RNA from each condition was subjected to formaldehyde-agarose gel electrophoresis followed by transfer onto GeneScreen Plus membrane (NEN Life Science Products, Boston, Mass.). The blot was hybridized with ^32P-labeled human GAPDH or β-actin cDNA. One hundred ng of total RNA was subjected to real time RT-PCR with the Taqman EZ-RT PCR kit (PE Applied Biosystems, Lincoln Centre Drive Foster City, Calif.) using recommended conditions provided by the vendor. Primers to analyze the level of human GAPDH mRNA were obtained from Applied Biosystems, and a probe for GAPDH was supplied with 5′ linkage to the reporter dye 2, 7-dimethoxy-4, 5-dichloro-6-carboxy-fluoroecein (JOE), and 3′ linkage to the quencher 6-carboxy-tetramethylrhodamine (TAMURA). β-actin primer sequences were 5′-[…]-3′ and 5′-[…]-3′. β-actin probe sequence was FAM-5′-[…] TTCC-3′-TAMURA. Reactions were carried out in triplicate and the relative amount of human GAPDH and β-actin mRNA was calculated from the difference in fluorescence signal in the 24-, 48- and 72-hr samples compared with the corresponding 0 hr sample.
# To assess cellular mRNA levels, total RNA was isolated from whole cells of Tet-treated or -untreated T-Rex-293 cells and subjected to Northern blot analysis using human GAPDH and β-actin cDNA probes. […] Labeled single-stranded DNA fragments complementary to the specific mRNA being sought then are hybridized to the bound mRNA and the label detected by suitable means. […]
# [4] = system: human GAPDH and β-actin mRNA; assay: real-time RT-PCR quantification of mRNA levels in T-Rex-293 cells; assay type: cell-based; conditions: cells expressing both MazE and MazF
# Description: Northern blot analysis and real-time PCR (RT-PCR) was preformed as previously described (Zhang, Y., et al., Mol. Cell 12: 913-923 (2003); Cuconati, A., et al., Genes Dev. 17: 2922-2932 (2003)). Total RNA from tetracycline-treated (0, 24, 48 and 72 hr) or untreated (0, 24, 48 and 72 hr) T-Rex-293 (mazF/pcDNA3) and T-Rex-293 (mazF/mazE) cells for were isolated through the use of Trizol Reagent (Gibco, Carlsbad, Calif.). For Northern blot analysis, 10 μg of total RNA from each condition was subjected to formaldehyde-agarose gel electrophoresis followed by transfer onto GeneScreen Plus membrane (NEN Life Science Products, Boston, Mass.). The blot was hybridized with ^32P-labeled human GAPDH or β-actin cDNA. One hundred ng of total RNA was subjected to real time RT-PCR with the Taqman EZ-RT PCR kit (PE Applied Biosystems, Lincoln Centre Drive Foster City, Calif.) using recommended conditions provided by the vendor. […] Reactions were carried out in triplicate and the relative amount of human GAPDH and β-actin mRNA was calculated from the difference in fluorescence signal in the 24-, 48- and 72-hr samples compared with the corresponding 0 hr sample.
# T-Rex-293 cells [5] = assay: 35S-methionine metabolic labeling (protein synthesis); assay type: cell-based, human; conditions: T-Rex-293 (mazF/mazE), Tet-treated
# Description: T-Rex-293 (mazF/pcDNA3) and T-Rex-293 (mazF/mazE) cells were incubated for 0, 24 and 48 hr in tetracycline-containing complete DMEM followed by incubation for 1 hr in fresh methionine-free DMEM containing 10 μCi/ml ^35S-methionine. The cells then were washed with PBS twice and lysed in 2× Laemmli buffer. The cell lysate was subjected to SDS-PAGE followed by autoradiography and coomassie blue stain. Signal intensity was measured by Phosphoimager STORM 860 (Molecular Dynamics, Sunnyvale, Calif.).
# T-Rex-293 cells [6] = assay: phase contrast morphology / cytopathic effect; assay type: cell-based, human; conditions: MazE co-expressed with MazF, T-Rex-293
# T-Rex-293 cells [7] = assay: trypan blue exclusion viability; assay type: cell-based, human; conditions: T-Rex-293 (mazF/mazE), Tet-treated
# Description: The viability of T-Rex-293 cells was determined by trypan blue exclusion as previously described (Degenhardt, K., et al., J. Biol. Chem. 277: 14127-14134 (2002)). T-Rex-293 (mazF/pcDNA3) and T-Rex-293 (mazF/mazE) cells were cultured for 24 hr before tetracycline treatment and then incubated for 0, 24, 48 and 72 hr at 37° C. in the presence or absence of 10 μg/ml tetracycline. After treatment, cells were collected by centrifugation of the supernatant plus adherent cells, which were harvested by trypsinization. Cells were resuspended in 500 μl of fresh medium containing 0.1% trypan blue solution (Sigma, St. Louis, Mo.) and then counted on a hemocytometer to assess the number of dead blue cells and the total number of cells counted. As a control for apoptotic cell death, T-Rex-293 (mazF/mazE) cells were treated with 1 μM staurosporine (Sigma, St. Louis, Mo.) for same time periods concurrently with tetracycline treatment.
# T-Rex-293 cells [8] = assay: FACS analysis of propidium iodide labeling (sub-G1 peak); assay type: cell-based, human; conditions: T-Rex-293 (mazF/mazE), MazE co-expressed with MazF, 72 hours of induction
# Description: T-Rex-293 (mazF/pcDNA3) cells and T-Rex-293 (mazF/mazE) cells treated with tetracycline for 0, 24, 48 and 72 hr were harvested by trypsinization, pelleted by centrifugation and resuspended in PBS. The cells were fixed with ice-cold 70% ethanol for 30 min and stained with propidium iodide (10 μg/ml) and RNase A (100 μg/ml) overnight. The cells were analyzed on a Becton Dickinson FACSCalibur system (San Jose, Calif.).
# iBMK cells [9] = assay: β-galactosidase assay, viability of iBMK cells co-expressing LacZ; assay type: cell-based, mouse; conditions: MazE transiently co-expressed with MazF in W2 and X2 cells
# Description: β-galactosidase assays to determine the viability of iBMK cells co-expressing LacZ and MazF were performed as previously described (Han, J., Sabbatini, P., and White, E. Mol. Cell. Biol. 16: 5857-5864 (1996)). W2, D3, X2 and K1 co-transfected with pcDNA6/His/LacZ and pcDNA4/TO/mazF or pcDNA3 for 48 hr were fixed in 1% glutaraldehyde and then stained with 0.2% X-gal solution at 37° C. for 24 hr. β-Galactosidase positive blue cells and the total number of cells (approximately 200 cells) were independently counted on a 6-cm diameter dish.
# [10] = W2 and three independent nbk/bik−/− iBMK cell lines
molecule,measurement,setting,value
"C[C@@H]1C[C@@H]([C@H](O)CC2CC(=O)NC(=O)C2)C(=O)[C@@H](C)C1 [CHX, cycloheximide]",cell viability (MTT assay),"iBMK cells [1]; D3, K1 and nbk/bik−/− cells, CHX 0.05-10.0 μg/ml for 24 hours",remained high
same,survival (MTT assay),"iBMK cells [1]; W2, X2, puma−/−, bim−/− and noxa−/− cells, CHX 0.05-10.0 μg/ml for 24 hours",decreased in a dose-dependent manner
TNF-α,sensitivity to TNF-α-induced cell death (MTT assay),iBMK cells [1]; D3 cells,resistant
same,sensitivity to TNF-α-induced cell death (MTT assay),iBMK cells [1]; [10],clearly sensitive
same,TNF-α-induced apoptosis,iBMK cells [2]; D3 iBMK cells,resistant
same,apoptosis induction,"iBMK cells [2]; W2, X2, and K1 iBMK cells",induces apoptosis
"CN[C@@H]1C[C@H]2O[C@@](C)([C@@H]1OC)n1c3ccccc3c3c4c(c5c6ccccc6n2c5c31)C(=O)NC4 [staurosporine, reference compound]",active caspase-3 (Western blot),"caspase-3, PARP; extracts from T-Rex-293 (mazF/mazE) cells treated with 1 μM staurosporine",detected
CC(=O)O[C@H]1C(=O)[C@@]2(C)[C@H]([C@H](OC(=O)c3ccccc3)[C@]3(O)C[C@H](OC(=O)[C@H](O)[C@@H](NC(=O)c4ccccc4)c4ccccc4)C(C)=C1C3(C)C)[C@]1(OC(C)=O)CO[C@@H]1C[C@@H]2O [paclitaxel],sensitivity to paclitaxel-induced cell death (MTT assay),iBMK cells [1]; D3 cells,resistant
same,sensitivity to paclitaxel-induced cell death (MTT assay),iBMK cells [1]; [10],clearly sensitive
B1,levels of both GAPDH and β-actin mRNAs (Northern blot),[3],maintained
same,levels of both GAPDH and β-actin mRNAs (real-time RT-PCR),[4],constant levels
same,effect of MazE co-expression on MazF inhibition of protein synthesis (35S-methionine incorporation),T-Rex-293 cells [5],clearly prevented the inhibitory effect of MazF
same,cell number and morphology,T-Rex-293 cells [6],maintained
same,effect of co-expression of MazE with MazF on viability (trypan blue exclusion),T-Rex-293 cells [7],conferred resistance to MazF-mediated killing
same,sub-G1 peak,T-Rex-293 cells [8],11.4%
same,activation of caspase-3 (Western blot),"caspase-3, PARP; co-expression of MazE with MazF, Tet-treated T-Rex-293 (mazF/mazE)",inhibited
same,cleaved PARP (Western blot),"caspase-3, PARP; extracts of cells expressing both MazE and MazF",not present
same,effect of MazE on MazF-induced cell death (β-galactosidase assay),iBMK cells [9],significantly repressed MazF-induced cell death
